From US7429482B2, “Screening tools for discovery of novel anabolic agents” (United States of America as represented by the Department …, priority 2005, dated 2008)

What was measured:
[1] = test system: human MAFbx promoter; test: Human MAFbx promoter luciferase reporter assay in C2C12 / C2C12.AR cells; type: cell-based
Source text: The reporter genes pMAF3.1, pMAF2.4, pMAF948, pMAF400, and pMAF400-241 express firefly luciferase under the control of promoter regions of the human MAFbx gene and are described in Example 1. The rARC562G vector, encoding rat AR with a C562->G mutation in the first zinc binding module that disrupts binding of AR to DNA was described by Palvimo et al. (Mol Endocrinol 7: 1399-1407, 1993) pAR.4RKM (expressing AR with 4 R/K->M mutations in the nuclear localization sequence that is unable to enter the nucleus) and pAR.ABC (lacking the ligand binding domain) were described by Zhou et al. (J Biol Chem 269: 13115-13123, 1994). The pBabe.puro retroviral backbone described by Morgenstern and Land (Nucleic Acids Res 18: 3587-3596, 1990) was modified by introduction of a Not1 site. The ARE reporter gene expressing firefly luciferase under control of the MMTV hormone response element, and pSP72hAR-1, containing an insert of the full-length cDNA clone of the human AR, were provided by Dr. Diane Robins (University of Michigan). pRL-CMV expressing Renilla luciferase was from Promega (Madison, Wis.).
C2C12 cells (American Type Culture Collection, Manassas, Va.) were maintained in Dulbeco's modified Eagle's Medium (DMEM) containing 10% fetal bovine serum (FBS) and penicillin (100 U/ml)/streptomycin (100 μg/ml) (growth medium). Cells were incubated at 37° C. in humidified air containing 10% CO2. 293T cells (American Type Culture Collection) were maintained in growth medium as above. Transfection was achieved using Lipofectamine-Plus (Invitrogen, Carlsbad, Calif.) using 200 ng total DNA per well.
Cells were seeded into wells of 24-well plates (5×10^5 cells/well) then maintained overnight in DMEM with 10% CDS-FBS. Cells were co-transfected with the various reporter genes and pRL-CMV. Cells were incubated in the transfection mixture overnight, then covered with DMEM supplemented with 10% charcoal-dextran-stripped FBS (CDS-FBS) and either ethanol (EtOH) or hormones dissolved in EtOH. Cells were maintained for an additional 24 hours, at which time both firefly and renilla luciferase activity were determined using the Dual Luciferase Assay (Promega, Madison, Wis.) and a Berthold 96-well plate luminometer. Firefly luciferase activities were normalized relative to renilla luciferase. Ethanol concentrations were less than 0.1%.

[2] = test system: myostatin; test: Acute denervation: myostatin mRNA in EDL and soleus (qPCR); type: in vivo, rat
Protocol: Male Wistar rats weighing 250 gm (Taconic Farms, Germantown, N.Y.) were provided food and water ad libitum and were housed in a temperature and humidity controlled environment providing a 12:12 hour day-night cycle. For surgical procedures, animals were anesthetized with ketamine/xylazine. The left sciatic nerve was exposed by blunt dissection, and a 1 to 2 mm piece of this nerve was excised just below the level of the femoral head. A sham surgery was performed on the right hind limb in which the sciatic nerve was exposed but was not transected. Model 2002 Alzet pumps were implanted subcutaneously on the back. […] A pellet containing 15 mg of testosterone (Innovative Research of America, Sarasota, Fla.) administered as a continuous infusion (5 mg/wk), or a pellet containing placebo, was inserted into a subcutaneous pouch. […] Because testosterone is known to have anabolic actions (Ferrando et al., Am J Physiol Endocrinol Metab 282: E601-E607, 2002; Mauras et al., J Clin Endocrinol Metab 83: 1886-1892, 1998; Urban et al., Am J Physiol 269: E820-E826, 1995), reductions in levels of this hormone could affect muscle mass and confound interpretation of the results. Animals were euthanized 14 days later by inhalation of carbon dioxide. […]
Total RNA was extracted from skeletal muscle (20 mg) by homogenization in guanidine thiocyanate using a Polytron followed by extraction using phenol-chloroform (Chomczynski and Sacchi, Anal Biochem 162: 156-159, 1987). […] Total RNA was then eluted and quantified by absorbance at 260 nm. […] Levels of gene expression in the denervated muscle were expressed as fold induction relative to muscle from the sham-denervated leg of animals administered vehicle. […] Fold-induction was determined using the 2^−ΔΔCt method, using expression of 18S RNA as the normalization control. […]

Row | Compound | repression of pMAF3.1 reporter activity ([1]; C2C12.AR cells, 5 nM testosterone) | suppression of MAFbx reporter with 3′ deletion of 208 bases encoding the 5′ UTR ([1]; C2C12.AR cells, 500 nM) | repression of pMAF3.1 reporter activity ([1]; C2C12.AR cells, 500 nM testosterone) | repression of 5′ truncated MAFbx reporters ([1]; C2C12.AR cells, 500 nM, three 5′ truncations including pMAF400) | dexamethasone induced luciferase expression (pMAF3.1) ([1]; C2C12.AR cells, testosterone 5 nM) | dexamethasone induced luciferase expression (pMAF3.1) ([1]; C2C12.AR cells, testosterone 50 nM) | dexamethasone induced luciferase expression (pMAF3.1) ([1]; C2C12.AR cells, testosterone 500 nM) | suppression of reporter under control of 3.1 of the MAFbx upstream promoter ([1]; C2C12 muscle cells, 500 nM) [%] | expression of MAFbx reporter (general statement) ([1]; cells transduced with the MAFbx reporter construct) | effect on activity of pMAF3.1 reporter ([1]; wild-type C2C12 cells, 5 to 500 nM) | repression of pMAF3.1 reporter ([1]; wild-type C2C12 co-transfected with AR defective in nuclear entry (4RKM), 500 nM) | repression of pMAF3.1 reporter ([1]; wild-type C2C12 co-transfected with AR lacking ligand binding domain (ABC), 500 nM) | repression of pMAF3.1 reporter ([1]; wild-type C2C12 co-transfected with DNA binding domain mutant AR (C562G), 500 nM) | pMAF3.1 reporter gene activity ([1]; wild-type C2C12 co-transfected with wild-type AR, 500 nM) | myostatin expression ([2]; denervated EDL) | myostatin expression ([2]; sham-denervated EDL) | myostatin expression ([2]; soleus)
1 | C[C@]12CC[C@H]3[C@@H](CCC4=CC(=O)CC[C@@]43C)[C@@H]1CC[C@@H]2O [testosterone] | about 40% | abolished suppression | greater than 50% | apparent | partially inhibited | full suppression | suppressed below that of untreated cells | 40 | decreased | no effect | No repression | absent | repression was observed | significantly depressed | – | – | –
2 | C[C@]12CC[C@H]3[C@@H](CCC4=CC(=O)CC[C@@H]43)[C@@H]1CC[C@@H]2O [nandrolone] | – | – | – | – | – | – | – | – | – | – | – | – | – | – | appeared to reduce | significantly reduced | did not appreciably alter
